What all share (format): in vivo
Series [1] has as its system Arabidopsis thaliana (Col-0). Nature of the series: Evaluation Example 2: tolerance to drying stress, plant mortality. On the procedure:
A commercially available EGT was used, and pure water was used as a solvent.
One individual Arabidopsis thaliana (Col-0) was seeded in a plastic pot having a diameter of 60 mm and a height of 55 mm. Plastic deep dishes each having a diameter of 160 mm and a height of 28 mm were prepared, and six pots were respectively placed therein. As soil, 45 mL of vermiculite, 22.5 mL of granular soil (Kumiai horticultural soil), and 22.5 mL of vermiculite were placed in the pot in this order.
They were located in a growth chamber set at room temperature of 22° C., and the light period was 16 hours and the dark period was 8 hours. The light conditions were set such that the light intensity was 5000 lx in the central part under irradiation with the fluorescent lamp. Water supply was conducted from the bottom, and the water level was set at about 5 mm. EGT in an amount of 50 mL was added on the 22nd day after seeding, and drying stress was applied by stopping water supply for 18 days from 2 days after the addition of EGT.
The number of surviving plants was counted 18 days after the stoppage of water, and the plant mortality rate was evaluated as an index of physiological disorder. The mortality rate and the environmental stress suppressing rate were calculated according to the following formulas.

A further series has as its system turf (Manila grass). Nature of the series: Evaluation Example 8: tolerance to drying stress, leaf mortality. The conditions noted are these: for Leaf mortality rate: test compound 0.1 mM (12.5 mL), water supply stopped 7 days twice; for Leaf mortality rate / Environmental stress suppressing rate: drying stress Yes; for Environmental stress suppressing rate: test compound 0.1 mM. How it is done:
EGT and GB were commercially available products, and pure water was used as a solvent.
In a plastic pot having a diameter of 135 mm and a height of 110 mm, 1 L of a raising seedling culture soil (manufactured by Kanetaki Co., Ltd.) was placed, and 100 mm square of turf (Manila grass) was planted per pot.
They were managed in a greenhouse set at room temperature of 25° C. 12.5 mL of EGT or 12.5 mL of GB was added about one month after planting, and water supply was stopped for 7 days thereafter. After cultivation under water supply for 7 days, drying stress was applied by stopping water supply for 7 days again.
The dead leaves of turf to which the drying stress was applied were counted, and the leaf mortality rate was evaluated as an index of physiological disorder. The leaf mortality rate and the environmental stress suppressing rate were calculated according to the following formulas.

Another series concerns rapeseed. Nature of the series: Evaluation Example 9: tolerance to excessive water stress, plant mortality. The conditions noted are these: for Environmental stress suppressing rate: excessive water stress Yes. How it is done: EGT (Example 11, Comparative Example 31) or GB (Comparative Examples 30 and 32) was prepared so as to have a concentration shown in Table 9 below. EGT and GB were commercially available products, and pure water was used as a solvent.
5 mL of pure water was added to 9-cm petri dishes on which filter paper was placed, and 12 rapeseed seeds were seeded per petri dish. They were located in a growth chamber set at room temperature of 22° C., and the light period was 16 hours and the dark period was 8 hours. The light conditions were set such that the light intensity was 5000 lx in the central part under irradiation with the fluorescent lamp.
On the sixth day after seeding, pure water in the petri dish was removed, 5 mL of EGT or 5 mL of GB was added to the petri dish, and one day after that, 50 mL of pure water was added to the petri dish to apply excessive water stress.
5 The surviving plants were counted 19 days after the excessive water stress was applied, and the mortality rate of the plants was evaluated as an index of physiological disorder. The mortality rate and the environmental stress suppressing rate were calculated according to the following formulas.

The next series deals with broccoli. The series is described as follows: Evaluation Example 13: tolerance to freezing stress, plant mortality. To be noted: for Environmental stress suppressing rate: freezing stress Yes. On the procedure: EGT (Example 17, Comparative Example 55) or GB (Comparative Examples 54 and 56) was prepared so as to have the concentration shown in Table 13 below. EGT and GB were commercially available products, and pure water was used as a solvent.
5 mL of pure water was added to 9-cm petri dishes on which filter paper was placed, and 10 broccoli seeds were seeded per petri dish. They were located in a growth chamber set at room temperature of 22° C., and the light period was 16 hours and the dark period was 8 hours. The light conditions were set such that the light intensity was 5000 lx in the central part under irradiation with the fluorescent lamp.
On the 6th day after seeding, pure water in the petri dish was removed, and then, 5 mL of EGT or 5 mL of GB was added to the petri dish, and freezing stress was applied by, 14 days after the addition, a first exposure to an environment of −20° C. for 20 minutes, and, 1 day after the first exposure, a second exposure to an environment of −20° C. for 20 minutes.
The surviving plants were counted 24 hours after the freezing stress was applied, and the mortality rate of the plants was evaluated as an index of physiological disorder. The mortality rate and the environmental stress suppressing rate were calculated according to the following formulas.

In the next series the test system is arugula. The series is described as follows: Evaluation Example 15: tolerance to low temperature stress, leaf wilting. The conditions noted are these: for Environmental stress suppressing rate: low temperature stress Yes. How it is done:
EGT (Examples 19 and 20, Comparative Examples 66 and 67) or GB (Comparative Example 64, 65, 68 and 69) was prepared so as to have a concentration shown in Table 15 below. EGT and GB were commercially available products, and pure water was used as a solvent.
1 mL of pure water was added to 3.5-cm petri dishes on which filter paper was placed, and 5 arugula seeds were seeded per petri dish. They were located in a growth chamber set at room temperature of 22° C., and the light period was 16 hours and the dark period was 8 hours. The light conditions were set such that the light intensity was 5000 lx in the central part under irradiation with the fluorescent lamp.
On the 4th day after seeding, pure water in the petri dish was removed, and then 1 mL of EGT or 1 mL of GB was added, and 24 hours after that, low temperature stress was applied by exposure to an environment of 4° C. for 48 hours.
The number of wilted arugula leaves was evaluated 3 days after the low temperature stress was applied. The leaf wilting rate and the environmental stress suppressing rate were calculated according to the following formulas.

The mark [2] stands for this setting: test compound 0.1 mM (5 mL), excessive water stress Yes (50 mL pure water per petri dish), 19 days after stress.
The mark [3] stands for this setting: test compound 0.1 mM, excessive water stress No.
[4] abbreviates: test compound 0.1 mM (5 mL), freezing stress Yes (−20° C. for 20 minutes, twice), 24 hours after stress.
Setting [5] is: test compound 0.1 mM, freezing stress No.
[6] abbreviates: test compound 0.1 mM (1 mL), low temperature stress Yes (4° C. for 48 hours), 3 days after stress.
Setting [7] is: test compound 0.1 mM, low temperature stress No.
Where [8] appears, read: test compound 1 mM (1 mL), low temperature stress Yes (4° C. for 48 hours), 3 days after stress.
Setting [9] is: test compound 1 mM, low temperature stress No.

As to `C[N+](C)(C)[C@@H](Cc1c[nH]c(=S)[nH]1)C(=O)[O-]` [EGT, L-(+)-ergothioneine], the “survival under drying stress, result in words” value in series [1] (EGT 1 mM, drying stress) was “all Arabidopsis thaliana plants survived”. Besides, the Mortality rate amounted to 0% in series [1] (test compound 1 mM (50 mL), drying stress Yes, water supply stopped 18 days); 25% in the series with rapeseed (setting [2]); 0% with rapeseed (setting [3]); 38% with broccoli (setting [4]); 0% in the series on broccoli (setting [5]). For the same compound, the “Environmental stress suppressing rate” value in series [1] (test compound 1 mM, drying stress Yes) is given as 100%; in the series with turf (Manila grass) it was 65%; in the series with rapeseed (test compound 0.1 mM), 58%; in the series on broccoli (test compound 0.1 mM) it was 56%; in the series with arugula (test compound 0.1 mM), 100%; in the series on arugula (test compound 1 mM) it was 100%. The Leaf mortality rate in the series on turf (Manila grass) turned out to be 35%. In addition, the Leaf wilting rate with arugula (setting [6]), in the series with arugula (setting [7]), with arugula (setting [8]) and in the series on arugula (setting [9]) was 0% in each case.
On to `C[N+](C)(C)CC(=O)[O-]` [GB, glycine betaine, reference compound], for which the “mortality rate due to drying stress, result in words” value in the series with turf (Manila grass) (0.1 mM, drying stress) is listed as “not suppressed”. In addition, in the series with turf (Manila grass), the Leaf mortality rate stood at 100%. Also, the “Environmental stress suppressing rate” value worked out at 0% in the series on turf (Manila grass); 0% in the series on rapeseed (test compound 0.1 mM); 0% with broccoli (test compound 0.1 mM); 10% with arugula (test compound 0.1 mM); 10% in the series with arugula (test compound 1 mM). Besides, in the series with rapeseed (0.1 mM, excessive water stress), the “mortality rate due to excessive water stress, result in words” value is given as “not suppressed”. For the same compound, the Mortality rate with rapeseed (setting [2]) was determined as 60%; in the series on rapeseed (setting [3]), 0%; in the series on broccoli (setting [4]), 100%; in the series with broccoli (setting [5]), 0%. Also, the “mortality rate due to freezing stress, result in words” value in the series on broccoli (0.1 mM, freezing stress) is “not suppressed”. For the same compound, the “leaf wilting rate due to low temperature stress, result in words” value with arugula (GB 1 mM and 0.1 mM, low temperature stress) is listed as “hardly suppressed”. For the same compound, the Leaf wilting rate was determined as 60% in the series with arugula (setting [6]), 0% in the series with arugula (setting [7]), 60% in the series on arugula (setting [8]) and 0% with arugula (setting [9]).

Values taken from patent US20260101897A1, “PLANT ENVIRONMENTAL STRESS TOLERANCE IMPROVEMENT AGENT AND ENVIRONMENTAL STRESS TOLERANCE IMPROVEMENT METHOD” (priority 2022, published 2026).
